Paper PMC8152971, “Valeriana rigida Ruiz & Pav. Root Extract: A New Source of Caffeoylquinic Acids with Antioxidant and Aldose Reductase Inhibitory Activities” (Foods, 2021)
Marks after values point to notes of the source that are not given here.

Experiments:
[1] = Partition coefficient (K upper/lower) in biphasic CCC solvent systems; assay type: physicochemical
Protocol: The solvent system was screened via HPLC and evaluated according to the partition coefficient (K value) of the target compounds on the principle introduced by Ito [32]. Briefly, four solvent systems comprising EtOAc, n-BuOH, […] solution to 29 mM, and then the corresponding K values of the target compounds under acidic (Kacid) or basic (Kbase) conditions were determined, as previously described: each acidified or basified solvent system was partitioned to upper layer and lower layer. Thereafter, the extract (about 1–2 mg) was prepared in a 1.5 mL tube and dissolved by adding equal volumes (each 500 µL) of the upper layer and lower layers, which were mixed by a vortex mixer and centrifuged for about 20 s using a C1301 Mini Centrifuge (Labnet International, South Korea). Next, the upper and lower phase sample solutions were respectively pipetted (each 200 µL) into a new 1.5 mL-tube and evaporated by nitrogen gas. Each sample residue was redissolved using 200 µL of MeOH and subjected to HPLC analysis with an injection volume of 20 µL. The K value was calculated as K = Aupper/Alower, where Aupper and Alower are the HPLC peak areas of the target component in the upper and lower phases, respectively.

[2] = Hypochlorous acid (HOCl) scavenging assay
Protocol: The HOCl scavenging assay was adapted from a previous study using 1,8-diaminonaphthalene as a fluorescence probe for hypochlorite. […] Next, the fluorescence intensity (λex = 360 ± 20 nm, λem = 460 ± 20 nm) was immediately measured using a microplate fluorescence reader (FLx800; Bio-Tek, Winooski, VT, USA). Trolox (final concentration 25–100 µg/mL) was used as a reference antioxidant.

[3] = ABTS radical scavenging assay; details: Trolox equivalent antioxidant capacity, mean ± SD, n ≥ 3
Protocol: The experiment was conducted as previously described. In brief, 3.5 mM of potassium persulfate aqueous solution was used to prepare 0.2 mM of ABTS diammonium salt. The solution was diluted 10-fold using distilled water and allowed to produce ABTS radicals (ABTS^+) by keeping the solution in the dark for 14 h at room temperature. […] Equation (1) was used to calculate the ABTS^+ scavenging activity (%), where Acontrol is the absorbance of ABTS^+ solution free of samples, Asample is the absorbance of ABTS^+ solution incubated with a sample, Ablank1 is the absorbance of the test sample free of ABTS^+ solution, and Ablank2 is the absorbance of the diluted potassium persulfate solution.

[4] = DPPH radical scavenging assay; details: Trolox equivalent antioxidant capacity, mean ± SD, n ≥ 3
Protocol: The experiment was carried out as previously described. […] Thereafter, the absorbance was measured using a microplate reader (EL800, Bio-Tek Instruments, Winooski, VT, USA) at 570 nm.

[5] = target: T1, rat lens AR homogenate (aldose reductase) (Rattus norvegicus, UniProt P07943); assay: AR inhibition assay; assay type: biochemical, Sprague–Dawley rats
T1 construct: the lenses were removed from the eyes, ground in a mortar; from tissue; host or cells: lens of Sprague–Dawley rats
Protocol: The eyes of 10-week Sprague–Dawley rats (250–280 g) were removed and frozen at −70 °C before use. Thereafter, the lenses were removed from the eyes, ground in a mortar (precooled at −70 °C), and extracted using 0.1 M PBS of pH 6.2 (around 0.5 mL of buffer per two frozen rat lenses).
The AR inhibitory activities of the extract and the separated compounds were determined as described previously. […] Next, the reaction was initiated by adding 20 µL of the substrate (DL-glyceraldehyde dimmer, 25 mM in 0.1 M PBS of pH 7.0), and the values were further measured for 6 min at 340 nm (OD340) using an Epoch microplate spectrophotometer (BioTek Instruments, Winooski, VT, USA). […] The DMSO used for sample preparation was less than 0.4% (v/v) in the reaction system.

[6] = Oxygen radical absorbance capacity (ORAC) assay; details: Trolox equivalent antioxidant capacity, mean ± SD, n ≥ 3
Protocol: The oxygen radical absorbance capacity (ORAC) assay was performed as previously described. Briefly, 0. […] Next, 60 µL of AAPH (40 mM) was added to generate peroxyl radicals to initiate the reaction.

Q: For `O=C(/C=C/c1ccc(O)c(O)c1)O[C@@H]1C[C@](O)(C(=O)O)C[C@@H](OC(=O)/C=C/c2ccc(O)c(O)c2)[C@H]1OC(=O)/C=C/c1ccc(O)c(O)c1` [3,4,5-triCQA (7), 3,4,5-tri-O-caffeoylquinic acid], which “K(upper/lower) Value” ([1]; EtOAc/H2O, 1:1, 30 mM ammonia) is on record?
A: 0.02

Q: And the “K(upper/lower) Value” ([1]; EtOAc/H2O, 1:1, 208 mM formic acid)?
A: 23.71

Q: And the “K(upper/lower) Value” ([1]; EtOAc/n-BuOH/H2O, 2:3:5, 30 mM ammonia)?
A: 0.40

Q: What about the “K(upper/lower) Value” ([1]; EtOAc/n-BuOH/H2O, 2:3:5, 208 mM formic acid) of the same compound?
A: 29.51

Q: And the “K(upper/lower) Value” ([1]; EtOAc/n-BuOH/H2O, 3:2:5, 30 mM ammonia)?
A: 0.22

Q: And the “K(upper/lower) Value” ([1]; EtOAc/n-BuOH/H2O, 3:2:5, 208 mM formic acid)?
A: 26.44

Q: And the “K(upper/lower) Value” ([1]; EtOAc/n-BuOH/H2O, 4:1:5, 30 mM ammonia)?
A: 0.03

Q: What about the “K(upper/lower) Value” ([1]; EtOAc/n-BuOH/H2O, 4:1:5, 208 mM formic acid) of the same compound?
A: 27.56

Q: And the “HOCl Scavenging Activity Inhibition (%)” value ([2]; 6.25 µM)?
A: 35.39 ± 1.17%

Q: What about the “HOCl Scavenging Activity Inhibition (%)” value ([2]; 12.5 µM) of the same compound?
A: 52.93 ± 1.02%

Q: What about the “HOCl Scavenging Activity Inhibition (%)” value ([2]; 25 µM) of the same compound?
A: 84.32 ± 3.39%

Q: What about the IC50 ([2]; linear regression) of the same compound?
A: 11.7 µM

Q: What about the “TE, ABTS” value [3] of the same compound?
A: 1.31 ± 0.05 ^a µmol Trolox Equivalents Per µmol Compound

Q: What about the “TE, DPPH” value [4] of the same compound?
A: 1.28 ± 0.04 ^a µmol Trolox Equivalents Per µmol Compound

Q: What about the inhibition at 0.195 µM ([5]; 0.195 µM, read-out: AR inhibitory Activity Inhibition (%)) of the same compound?
A: 27.6 ± 2.43%

Q: What about the inhibition at 0.391 µM ([5]; 0.391 µM, read-out: AR inhibitory Activity Inhibition (%)) of the same compound?
A: 49.7 ± 0.94%

Q: What about the inhibition at 0.781 µM ([5]; 0.781 µM, read-out: AR inhibitory Activity Inhibition (%)) of the same compound?
A: 69.8 ± 0.77%

Q: And the IC50 ([5]; rat lens AR, read-out: AR inhibitory Activity IC50)?
A: 0.4 µM

Q: And the “TE, ORAC” value [6]?
A: 1.95 ± 0.15 ^b µmol Trolox Equivalents Per µmol Compound
